Experiments:
mouse model of seizure = assay: Maximal electroshock seizure threshold (MEST) test in the mouse, Example 2; settings: CC50; 2.5 mg/kg i.p., 30 min pre-treatment
Protocol: The efficacy of CBD-C1 was tested in a mouse model of seizure, the maximal electroshock seizure threshold (MEST) test.
The maximal electroshock seizure threshold (MEST) test is widely utilized preclinically to evaluate pro- and anti-convulsant properties of molecules (Loscher et al., 1991).
In the MEST test the ability of a drug to alter the seizure threshold current required to induce hind limb tonic extensor convulsions is measured according to an “up and down” method of shock titration (Kimball et al., 1957). An increase in seizure threshold is indicative of anti-convulsant effect.
Naïve mice were acclimatised to the procedure room in their home cages, with food and water available ad libitum.
Animals were dosed i.p. according to dose group.
The vehicle (10 ml/kg i.p. 60 min pre-treatment time) was 1:1:18 vehicle 5% ethanol, 5% kolliphor EL, 90% saline. […]
Mice were individually assessed for the production of a tonic hind limb extensor seizure using a Hugo Sachs Electronik stimulator, which delivered an adjustable constant current (1-300 mA) of 0.1 s duration via corneal electrodes. […]
Induction of seizure is measured as an all-or-nothing effect scored as either present (+) or absent (0) for each animal.
Data was analysed by comparing treated groups with the appropriate vehicle control using Fisher's Exact Probability tests.

[1] = tested on: mouse model of generalised seizure; assay: Maximal electroshock seizure threshold (MEST) test in the mouse, Example 3; settings: CC50, 30 min pre-treatment
Protocol: The efficacy of CBD-C1 was tested in a mouse model of generalised seizure, the maximal electroshock seizure threshold (M EST) test, as in Example 2.
Naïve mice were acclimatised to the procedure room in their home cages for up to 7 days, with food and water available ad libitum.
All animals were weighed at the beginning of the study and randomly assigned to treatment groups based on a mean distribution of body weight across groups.
The first animal within a treatment group was given a shock at the expected or estimated CC50 current. For subsequent animals, the current was lowered or raised depending on the convulsions outcome from the preceding animal.
Data generated from each treatment group were used to calculate the CC50±SEM values for the treatment group.
Vehicle: (5% ethanol, 5% solutol, 90% Saline) was prepared as follows: 2 mL of ethanol, 2 mL of solutol were warmed to 60° C., in 36 mL of saline (1:1:18).
The test compound, CBD-C1 was prepared according to the method described in Example 1. […]
CBD-C1 effects were also calculated as percentage change in CC50 from the vehicle control group.
Significant difference between drug-treated animals and controls were assessed according to Litchfield and Wilcoxon (1949).

## CN1C(=O)CN=C(c2ccccc2)c2cc(Cl)ccc21 [Diazepam, diazepam, reference compound]
Mouse model of seizure
  % change from vehicle: 68%
[1]; 2.5 mg/kg i.p.
  % change from vehicle: 247%

## CCCC(CCC)C(=O)[O-].[Na+] [Sodium Valproate, sodium valproate, reference compound]
[1]; 250 mg/kg i.p.
  % change from vehicle: 1160%

— US12396963B2, “Cannabidiol-type cannabinoid compound” (JAZZ PHARMACEUTICALS RESEARCH UK LIMITED, priority 2019, dated 2025)
